The values below come from US20180037568A1, “MODULATORS OF METHYL MODIFYING ENZYMES, COMPOSITIONS AND USES THEREOF” (Constellation Pharmaceuticals, Inc., priority 2015, published 2018).

The structures appear in SMILES notation. Like-named read-outs stand apart in the source and are kept apart here.

One assay has as its target T1, PRC2 containing wt EZH2 (Homo sapiens, UniProt Q15910).
T1 construct: made in house
Nature of the assay: EZH2 pep BSA Brij 4.0 LowE (IC50): 3H-SAM incorporation into biotinylated H3 peptide. The format is biochemical. How it is done: EZH2 Pep BSA Brij 4.0 LowE (IC50):
Compound potencies were assessed through incorporation of ^3H-SAM into a biotinylated H3 peptide. Specifically, PRC2 containing wt EZH2 (20 pM), (pentameric complexes prepared in-house) was pre-incubated with ^3H-SAM (0.9 μM), 2 μM H3K27me3 activating peptide (H2N-RKQLATKAAR(Kme3)SAPATGGVKKP-amide) and compounds (as 10 point duplicate dose response titrations in DMSO, final assay 0.8% DMSO (v/v)) for 120 min in 50 mM Tris (pH 8.5), 1 mM DTT, 0.07 mM Brij-35, 0.1% BSA, and 0.8% DMSO in a total volume of 12.5 μl. Reaction was initiated with biotinylated H3 substrate peptide (H2N-RKQLATKAAR(Kme1)SAPATGGVKKP-NTPEGBiot) as a 2 μM stock in 12.5 μl of buffer and allowed to react at room temperature for 5 h. Quenching was accomplished by addition of 20 μl of STOP solution (50 mM Tris (pH 8.5), 200 mM EDTA, 2 mM SAH). 35 μl of the quenched solution was transferred to Streptavidin Flashplates, incubated overnight, washed, and read in a TopCount Reader (Perkin Elmer). IC50s were calculated relative to fully active and no enzyme control wells using non-linear least square four parameter fits.

The subject of the next assay is H3K27me3 mark. Description: H3K27me3 Alpha Hela Assay (AlphaLISA). The format is cell-based. The settings on record: Hela cells, read-out: EZH2 Cell H3K27me3 Alpha HeLa (EC50 K27me3). The method, then: EC50 Measurements for Inhibitors in HeLa Cell Assays
H3K27me3 Alpha Hela Assay (AlphaLISA). Ten different doses of each test compound (in a series of 3-fold dilutions) were plated in duplicate 384-well tissue culture treated plates (Catalog #781080; Greiner Bio One; Monroe, N.C.). Hela cells grown in culture were trypsinized and counted using a Countess® cell counter (Catalog # C10281; Life Technologies, Grand Island, N.Y.). Cell were diluted to 67,000 cells per mL in 10% DMEM (Catalog #10569-010 Life Technologies, Grand Island, N.Y.) and 15 μL (1,000 cells) were plated into each well using the Biotek MicroFlo™ Select Dispenser (BioTek Instruments, Inc. Vermont, USA),) of the 384-well plate. Plates were incubated at 37° C./5% CO2 for 72 hrs. One of the duplicate plates was processed for HeLa assay and the other for viability.
To the plate processed for AlphaLISA was added 5 μL per well Cell-Histone Lysis buffer (1×) (Catalog # AL009F1 Perkin Elmer; Waltham, Mass.) and the plate was incubated at RT for 30 minutes on a plate shaker with low speed (Model#4625-Q Thermo Scientific; Waltham, Mass.). Then, 10 μL per well Histone Extraction buffer (catalog # AL009F2; Perkin Elmer; Waltham, Mass.) was added and the plate further incubated at RT for 20 min on plate shaker with low speed. To each well was then added 10 μL per well of a 5× mix of anti-K27me3 acceptor beads plus Biotinylated anti-Histone H3 (C-ter) Antibody (diluted to 3 nM final) (Catalog #AL118 Perkin Elmer; Waltham, Mass.). Dilution of the acceptor beads and then anti-Histone H3 was with 1× Histone Detection buffer (Catalog # AL009F3 Perkin Elmer; Waltham, Mass.) which was produced diluted from the 10× stock provided. The plate was sealed with an aluminum plate sealer and incubated at 23° C. for 60 min. We then added 10 μL 5× solution of Streptavidin Donor beads (Catalog #6760002 Perkin Elmer; Waltham, Mass.) (20 μg/mL final in 1× Histone Detection Buffer), sealed the plate with Aluminum plate sealer and incubated at 23° C. for 30 min. The plates were then read using an EnVision-Alpha Reader (model #2104 Perkin Elmer; Waltham, Mass.).
Data from both assays was analyzed using Assay Assistant (Constellation Pharmaceuticals In-house product) and Activity Base (IDBS Ltd, Surrey, UK) template. Data files were imported to Assay Assistant and assay conditions were specified. A unique Analysis ID was created and the data files exported to Activity Base. An analysis template was created on Activity Base to measure dose-dependent inhibition of H3K27me3 mark and cell viability respectively. Readout of DMSO wells were used to normalize the data. Resulting curves were fitted using Activity base software Model 205 (IDBS Ltd, Surrey, UK). The data was checked for quality, validated and integrated in excel format using SARview (IDBS Ltd, Surrey, UK).

[1] abbreviates: EZH2 pep BSA Brij 4.0 LowE (IC50), 20 pM PRC2 wt EZH2, 0.9 μM 3H-SAM, biotinylated H3 peptide substrate, 2 μM H3K27me3 activating peptide.
The mark [2] stands for this setting: read-out: EZH2 pep BSA Brij 4.0 LowE (IC50); 20 pM PRC2 wt EZH2, 0.9 μM 3H-SAM, biotinylated H3 peptide substrate, 2 μM H3K27me3 activating peptide.

T1 sequence (Q15910 whole entry): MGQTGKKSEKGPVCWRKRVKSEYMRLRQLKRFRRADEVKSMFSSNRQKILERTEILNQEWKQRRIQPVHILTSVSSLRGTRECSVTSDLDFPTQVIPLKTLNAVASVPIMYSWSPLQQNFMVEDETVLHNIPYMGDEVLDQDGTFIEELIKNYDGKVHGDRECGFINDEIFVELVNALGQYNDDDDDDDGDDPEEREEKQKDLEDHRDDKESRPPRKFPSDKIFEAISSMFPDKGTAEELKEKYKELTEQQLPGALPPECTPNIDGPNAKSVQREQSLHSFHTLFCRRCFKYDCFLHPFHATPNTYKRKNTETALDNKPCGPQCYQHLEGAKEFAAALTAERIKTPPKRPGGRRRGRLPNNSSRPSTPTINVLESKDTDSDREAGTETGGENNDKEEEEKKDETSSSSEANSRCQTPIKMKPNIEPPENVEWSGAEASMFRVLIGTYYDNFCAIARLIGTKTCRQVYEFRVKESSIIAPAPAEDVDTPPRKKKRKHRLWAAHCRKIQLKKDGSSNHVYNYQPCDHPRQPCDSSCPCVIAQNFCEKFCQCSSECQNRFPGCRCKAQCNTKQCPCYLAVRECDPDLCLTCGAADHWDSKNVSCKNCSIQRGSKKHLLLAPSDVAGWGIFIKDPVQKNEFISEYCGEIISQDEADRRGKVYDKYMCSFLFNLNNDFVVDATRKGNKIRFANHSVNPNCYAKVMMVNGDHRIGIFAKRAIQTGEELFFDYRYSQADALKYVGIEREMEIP
T1 sequence (O75530 whole entry partner): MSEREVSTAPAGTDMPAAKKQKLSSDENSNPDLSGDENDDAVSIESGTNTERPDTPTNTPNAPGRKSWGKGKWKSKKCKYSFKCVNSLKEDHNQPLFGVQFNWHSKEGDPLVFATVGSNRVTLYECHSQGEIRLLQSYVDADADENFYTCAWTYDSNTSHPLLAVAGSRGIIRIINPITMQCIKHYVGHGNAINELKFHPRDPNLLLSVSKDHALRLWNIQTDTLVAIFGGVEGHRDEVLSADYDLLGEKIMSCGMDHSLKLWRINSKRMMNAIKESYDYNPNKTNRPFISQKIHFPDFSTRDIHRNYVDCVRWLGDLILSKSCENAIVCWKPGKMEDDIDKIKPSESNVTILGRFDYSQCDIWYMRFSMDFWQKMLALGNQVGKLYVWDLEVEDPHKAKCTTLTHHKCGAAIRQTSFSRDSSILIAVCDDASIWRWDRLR
T1 sequence (Q15022 whole entry partner): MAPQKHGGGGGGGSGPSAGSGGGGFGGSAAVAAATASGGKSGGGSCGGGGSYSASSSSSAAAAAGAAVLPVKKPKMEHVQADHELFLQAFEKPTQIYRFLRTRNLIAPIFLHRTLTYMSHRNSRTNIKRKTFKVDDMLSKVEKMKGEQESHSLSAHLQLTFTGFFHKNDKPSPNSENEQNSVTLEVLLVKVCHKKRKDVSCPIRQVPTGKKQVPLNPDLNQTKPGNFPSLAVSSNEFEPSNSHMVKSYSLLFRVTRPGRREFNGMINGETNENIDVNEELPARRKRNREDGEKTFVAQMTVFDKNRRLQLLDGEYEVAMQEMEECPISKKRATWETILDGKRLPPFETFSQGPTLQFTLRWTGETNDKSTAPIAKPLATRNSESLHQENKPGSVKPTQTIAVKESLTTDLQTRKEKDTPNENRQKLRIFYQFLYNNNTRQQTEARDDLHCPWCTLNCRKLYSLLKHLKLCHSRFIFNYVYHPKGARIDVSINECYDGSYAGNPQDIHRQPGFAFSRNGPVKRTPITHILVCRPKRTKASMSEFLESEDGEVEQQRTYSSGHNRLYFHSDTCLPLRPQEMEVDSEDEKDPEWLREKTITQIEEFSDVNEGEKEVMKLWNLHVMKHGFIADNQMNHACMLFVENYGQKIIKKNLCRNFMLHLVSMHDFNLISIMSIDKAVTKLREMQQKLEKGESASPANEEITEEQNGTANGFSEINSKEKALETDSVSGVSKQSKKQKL
T1 sequence (Q09028 whole entry partner): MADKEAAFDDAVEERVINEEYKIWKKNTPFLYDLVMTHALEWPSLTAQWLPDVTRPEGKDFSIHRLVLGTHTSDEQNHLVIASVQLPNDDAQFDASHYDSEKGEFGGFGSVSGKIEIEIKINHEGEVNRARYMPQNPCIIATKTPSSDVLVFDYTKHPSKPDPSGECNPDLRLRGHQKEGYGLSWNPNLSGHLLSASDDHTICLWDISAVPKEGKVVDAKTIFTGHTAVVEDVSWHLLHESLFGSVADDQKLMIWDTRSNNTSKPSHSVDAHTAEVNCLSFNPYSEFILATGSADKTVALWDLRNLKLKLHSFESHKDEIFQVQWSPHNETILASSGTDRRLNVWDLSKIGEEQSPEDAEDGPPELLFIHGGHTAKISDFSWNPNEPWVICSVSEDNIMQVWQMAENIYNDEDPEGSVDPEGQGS
T1 sequence (Q6ZN18 whole entry partner): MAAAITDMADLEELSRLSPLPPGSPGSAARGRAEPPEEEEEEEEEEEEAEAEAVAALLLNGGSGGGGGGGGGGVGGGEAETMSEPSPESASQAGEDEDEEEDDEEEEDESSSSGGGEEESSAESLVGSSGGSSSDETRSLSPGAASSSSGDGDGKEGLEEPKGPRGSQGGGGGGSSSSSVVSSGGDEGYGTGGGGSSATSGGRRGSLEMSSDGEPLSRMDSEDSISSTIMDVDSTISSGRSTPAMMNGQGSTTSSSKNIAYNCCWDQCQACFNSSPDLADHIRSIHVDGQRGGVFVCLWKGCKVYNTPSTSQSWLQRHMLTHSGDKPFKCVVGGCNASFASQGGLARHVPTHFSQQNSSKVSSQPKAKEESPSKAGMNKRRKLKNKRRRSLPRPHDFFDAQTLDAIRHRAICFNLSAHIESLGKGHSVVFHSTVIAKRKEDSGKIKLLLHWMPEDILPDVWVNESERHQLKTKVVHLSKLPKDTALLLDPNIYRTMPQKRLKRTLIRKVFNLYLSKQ

On PRC2 containing wt EZH2 (setting [1]), `COc1cc(C)[nH]c(=O)c1CNC(=O)c1c(C)n(C(C)C2CCN(CC(C)(F)F)C(C)C2)c2ccccc12` (stereo not shown) [Compound 72] displayed an IC50 of 100 to 1000 nM. Moreover, the EC50 with H3K27me3 mark (72 hrs) is more than 2000 nM.

`COc1cc(C)[nH]c(=O)c1CNC(=O)c1c(C)n(C(C)C2CCN(C)C(c3cccc(C#N)c3)C2)c2ccccc12` (stereo not shown) [Compound 96]: at PRC2 containing wt EZH2 (setting [2]), the IC50 was less than 100 nM. In addition, the EC50 with H3K27me3 mark (72 hrs) was in the range of 400 to 2000 nM.

`COc1cc(C)[nH]c(=O)c1CNC(=O)c1c(C)n(C(C)C2CCN(CC(C)(F)F)C(C)C2)c2ccccc12` (stereo not shown) [Compound 70] had a 50% inhibitory concentration (IC50) against PRC2 containing wt EZH2 (setting [1]) of less than 100 nM. In addition, the EC50 with H3K27me3 mark (72 hrs) is 400 to 2000 nM.

Turning to `Cc1cc(C)c(CNC(=O)c2c(C)n(C(C)C3CCN(C)C(C(F)(F)F)C3)c3ccccc23)c(=O)[nH]1` (single isomer, unassigned) [Compound 25, N-((4,6-dimethyl-2-oxo-1,2-dihydropyridin-3-yl)methyl)-2-methyl-1-(1-(1-methyl-2-(trifluoromethyl)piperidin-4-yl)ethyl)-1H-indole-3-carboxamide], the IC50 against PRC2 containing wt EZH2 (setting [1]) was less than 100 nM. Further, the EC50 with H3K27me3 mark (72 hrs) was more than 2000 nM.

Turning to `COc1cc(C)[nH]c(=O)c1CNC(=O)c1c(C)n(C(C)C2CCN(C)C(CF)C2)c2ccccc12` (stereo not shown) [Compound 29, 1-(1-(2-(fluoromethyl)-1-methylpiperidin-4-yl)ethyl)-N-((4-methoxy-6-methyl-2-oxo-1,2-dihydropyridin-3-yl)methyl)-2-methyl-1H-indole-3-carboxamide], the IC50 against PRC2 containing wt EZH2 (setting [1]) was less than 100 nM. The EC50 in the assay with H3K27me3 mark (Homo sapiens, HeLa, 72 h) was more than 2000 nM.

Regarding `COc1cc(C)[nH]c(=O)c1CNC(=O)c1c(C)n(C(C)C2CCNC(CC(F)(F)F)C2)c2ccccc12` (stereo not shown) [Compound 90], the IC50 against PRC2 containing wt EZH2 (setting [1]) is less than 100 nM. The EC50 in the assay with H3K27me3 mark (72 hrs) was in the range of 400 to 2000 nM.

Regarding `Cc1cc(C)c(CNC(=O)c2c(C)n(C(C)C3CCN(C)C(C(F)(F)F)C3)c3ccccc23)c(=O)[nH]1` (single isomer, unassigned) [Compound 26, N-((4,6-dimethyl-2-oxo-1,2-dihydropyridin-3-yl)methyl)-2-methyl-1-(1-(1-methyl-2-(trifluoromethyl)piperidin-4-yl)ethyl)-1H-indole-3-carboxamide], the IC50 on PRC2 containing wt EZH2 (setting [2]) was less than 100 nM. Besides, the EC50 with H3K27me3 mark (72 hrs) is less than 400 nM.

On to `COc1cc(C)[nH]c(=O)c1CNC(=O)c1c(C)n(C(C)C2CCN(CC(C)(F)F)C(C)C2)c2ccccc12` (stereo not shown) [Compound 73], for which the IC50 at PRC2 containing wt EZH2 (setting [1]) is less than 100 nM. For the same compound, the EC50 in the assay on H3K27me3 mark (72 hrs) was less than 400 nM.

`COc1cc(C)[nH]c(=O)c1CNC(=O)c1c(C)n(C(C)C2CCN(CC(F)(F)F)C(C)C2)c2ccccc12` (stereo not shown) [Compound 47] registered an IC50 at PRC2 containing wt EZH2 (setting [1]) of 100 to 1000 nM. In the assay with H3K27me3 mark (72 hrs), the 50% effective concentration (EC50) was more than 2000 nM.

`CCS(=O)(=O)N1CCC(C(C)n2c(C)c(C(=O)NCc3c(OC)cc(C)[nH]c3=O)c3ccccc32)CC1C` (stereo not shown) [Compound 91] displayed an IC50 on PRC2 containing wt EZH2 (setting [1]) of less than 100 nM. The EC50 in the assay with H3K27me3 mark (Homo sapiens, HeLa, 72 h) is more than 2000 nM.

In the case of `CCc1cc(C)[nH]c(=O)c1CNC(=O)c1c(C)n(C(C)C2CCNC(C(F)(F)F)C2)c2ccccc12` (stereo not shown) [Compound 5, N-((4-ethyl-6-methyl-2-oxo-1,2-dihydropyridin-3-yl)methyl)-2-methyl-1-(1-(2-(trifluoromethyl)piperidin-4-yl)ethyl)-1H-indole-3-carboxamide], at PRC2 containing wt EZH2 (setting [1]), the IC50 is less than 100 nM. For the same compound, in the assay on H3K27me3 mark (Homo sapiens, HeLa, 72 h), the EC50 is less than 400 nM.

Take `COc1cc(C)[nH]c(=O)c1CNC(=O)c1c(C)n(C(C)C2CCNC(c3ccccc3F)C2)c2ccccc12` (stereo not shown) [Compound 66]: the IC50 on PRC2 containing wt EZH2 (setting [2]) was less than 100 nM. Also, the EC50 with H3K27me3 mark (Homo sapiens, HeLa, 72 h) lay in the range of 400 to 2000 nM.

Compound `COc1cc(C)[nH]c(=O)c1CNC(=O)c1c(C)n(C(C)C2CCN(C)CC2C(F)(F)F)c2ccccc12` (single isomer, unassigned) [Compound 28, N-((4-methoxy-6-methyl-2-oxo-1,2-dihydropyridin-3-yl)methyl)-2-methyl-1-(1-(1-methyl-3-(trifluoromethyl)piperidin-4-yl)ethyl)-1H-indole-3-carboxamide] yielded an IC50 against PRC2 containing wt EZH2 (setting [1]) of less than 100 nM. Besides, the EC50 in the assay with H3K27me3 mark (72 hrs) is more than 2000 nM.

In the case of `COc1cc(C)[nH]c(=O)c1CNC(=O)c1c(C)n(C(C)C2CCN(C)C(c3ccc(F)cc3)C2)c2ccccc12` (single isomer, unassigned) [Compound 34, 1-(1-(2-(4-fluorophenyl)-1-methylpiperidin-4-yl)ethyl)-N-((4-methoxy-6-methyl-2-oxo-1,2-dihydropyridin-3-yl)methyl)-2-methyl-1H-indole-3-carboxamide], at PRC2 containing wt EZH2 (20 pM PRC2 wt EZH2, 0.9 μM 3H-SAM, biotinylated H3 peptide substrate, 2 μM H3K27me3 activating peptide; read-out: EZH2 pep BSA Brij 4.0 LowE (IC50)), the IC50 lay in the range of 100 to 1000 nM. In the assay on H3K27me3 mark (72 hrs), the EC50 was more than 2000 nM.
